Patent US10245261B2, “Substituted indol-5-ol derivatives and their therapeutic applications” (NantBioScience, Inc., priority 2013, dated 2019)

Legend:
Assay in all cases: KinaseProfiler kinase assay
Assay type in all cases: biochemical
AMPKα1(h) = AMPKα1(h) (Homo sapiens, UniProt Q13131)
How it was run: (§1)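 Steps: compound diluted from DMSO into MOPS/BSA assay buffer; MgATP mix with [γ-33P]ATP added to start; 40 min incubation at room temperature; phosphoric acid stop; filtermat spotting, washing in 50 mM phosphoric acid and methanol; scintillation counting.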

CDK1/cyclinB(h) = CDK1/cyclinB(h) (Homo sapiens, UniProt P06493)
How it was run: as §1

CK2(h) = CK2(h) (Homo sapiens, UniProt P68400)
How it was run: as §1

CaMKIV(h) = CaMKIV(h) (Homo sapiens, UniProt Q16566)
How it was run: as §1

DAPK1(h) = DAPK1(h) (Homo sapiens, UniProt P53355)
Chain of DAPK1(h) (P53355 whole entry): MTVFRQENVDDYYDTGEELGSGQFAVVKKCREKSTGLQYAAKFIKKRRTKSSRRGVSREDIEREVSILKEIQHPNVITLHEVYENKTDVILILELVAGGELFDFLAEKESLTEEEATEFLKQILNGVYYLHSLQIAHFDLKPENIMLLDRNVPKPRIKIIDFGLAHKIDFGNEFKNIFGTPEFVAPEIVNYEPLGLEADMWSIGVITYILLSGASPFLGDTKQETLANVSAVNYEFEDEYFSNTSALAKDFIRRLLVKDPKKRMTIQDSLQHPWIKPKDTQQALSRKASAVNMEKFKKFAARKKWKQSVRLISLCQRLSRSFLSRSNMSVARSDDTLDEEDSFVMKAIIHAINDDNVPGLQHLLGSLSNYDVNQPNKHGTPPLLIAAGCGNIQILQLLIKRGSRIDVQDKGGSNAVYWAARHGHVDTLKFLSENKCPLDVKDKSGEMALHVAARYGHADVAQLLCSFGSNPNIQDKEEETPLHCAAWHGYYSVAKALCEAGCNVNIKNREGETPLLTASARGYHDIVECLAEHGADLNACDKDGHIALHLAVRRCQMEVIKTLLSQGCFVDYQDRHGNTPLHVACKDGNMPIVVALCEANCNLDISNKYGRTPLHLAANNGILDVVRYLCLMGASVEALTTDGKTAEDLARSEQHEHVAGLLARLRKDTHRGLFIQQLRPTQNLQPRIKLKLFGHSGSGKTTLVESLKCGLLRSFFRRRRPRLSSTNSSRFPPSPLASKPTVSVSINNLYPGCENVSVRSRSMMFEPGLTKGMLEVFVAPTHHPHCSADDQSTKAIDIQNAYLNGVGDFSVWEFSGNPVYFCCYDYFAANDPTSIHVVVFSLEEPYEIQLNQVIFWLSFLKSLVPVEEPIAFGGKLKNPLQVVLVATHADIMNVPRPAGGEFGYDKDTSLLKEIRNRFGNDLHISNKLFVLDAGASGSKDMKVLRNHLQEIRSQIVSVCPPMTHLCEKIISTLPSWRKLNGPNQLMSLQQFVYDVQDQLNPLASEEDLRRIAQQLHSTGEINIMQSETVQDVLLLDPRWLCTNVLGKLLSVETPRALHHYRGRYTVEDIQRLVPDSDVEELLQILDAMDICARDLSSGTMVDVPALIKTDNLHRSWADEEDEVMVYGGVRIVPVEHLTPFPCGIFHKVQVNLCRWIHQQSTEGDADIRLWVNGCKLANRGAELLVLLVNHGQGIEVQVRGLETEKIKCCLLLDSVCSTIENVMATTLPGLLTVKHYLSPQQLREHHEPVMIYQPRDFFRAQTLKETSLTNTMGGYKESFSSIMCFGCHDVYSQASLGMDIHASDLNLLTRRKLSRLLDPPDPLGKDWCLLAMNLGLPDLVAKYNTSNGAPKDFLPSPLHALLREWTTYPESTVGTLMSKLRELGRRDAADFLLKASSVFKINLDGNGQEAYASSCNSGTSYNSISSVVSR
How it was run: as §1

DAPK2(h) = DAPK2(h) (Homo sapiens, UniProt Q9UIK4)
How it was run: as §1

DMPK(h) = DMPK(h) (Homo sapiens, UniProt Q09013)
How it was run: as §1

EGFR(T790M)(h) = EGFR(T790M)(h) (Homo sapiens, UniProt P00533, T790M)
Chain of EGFR(T790M)(h) (P00533 25-1210 T790M): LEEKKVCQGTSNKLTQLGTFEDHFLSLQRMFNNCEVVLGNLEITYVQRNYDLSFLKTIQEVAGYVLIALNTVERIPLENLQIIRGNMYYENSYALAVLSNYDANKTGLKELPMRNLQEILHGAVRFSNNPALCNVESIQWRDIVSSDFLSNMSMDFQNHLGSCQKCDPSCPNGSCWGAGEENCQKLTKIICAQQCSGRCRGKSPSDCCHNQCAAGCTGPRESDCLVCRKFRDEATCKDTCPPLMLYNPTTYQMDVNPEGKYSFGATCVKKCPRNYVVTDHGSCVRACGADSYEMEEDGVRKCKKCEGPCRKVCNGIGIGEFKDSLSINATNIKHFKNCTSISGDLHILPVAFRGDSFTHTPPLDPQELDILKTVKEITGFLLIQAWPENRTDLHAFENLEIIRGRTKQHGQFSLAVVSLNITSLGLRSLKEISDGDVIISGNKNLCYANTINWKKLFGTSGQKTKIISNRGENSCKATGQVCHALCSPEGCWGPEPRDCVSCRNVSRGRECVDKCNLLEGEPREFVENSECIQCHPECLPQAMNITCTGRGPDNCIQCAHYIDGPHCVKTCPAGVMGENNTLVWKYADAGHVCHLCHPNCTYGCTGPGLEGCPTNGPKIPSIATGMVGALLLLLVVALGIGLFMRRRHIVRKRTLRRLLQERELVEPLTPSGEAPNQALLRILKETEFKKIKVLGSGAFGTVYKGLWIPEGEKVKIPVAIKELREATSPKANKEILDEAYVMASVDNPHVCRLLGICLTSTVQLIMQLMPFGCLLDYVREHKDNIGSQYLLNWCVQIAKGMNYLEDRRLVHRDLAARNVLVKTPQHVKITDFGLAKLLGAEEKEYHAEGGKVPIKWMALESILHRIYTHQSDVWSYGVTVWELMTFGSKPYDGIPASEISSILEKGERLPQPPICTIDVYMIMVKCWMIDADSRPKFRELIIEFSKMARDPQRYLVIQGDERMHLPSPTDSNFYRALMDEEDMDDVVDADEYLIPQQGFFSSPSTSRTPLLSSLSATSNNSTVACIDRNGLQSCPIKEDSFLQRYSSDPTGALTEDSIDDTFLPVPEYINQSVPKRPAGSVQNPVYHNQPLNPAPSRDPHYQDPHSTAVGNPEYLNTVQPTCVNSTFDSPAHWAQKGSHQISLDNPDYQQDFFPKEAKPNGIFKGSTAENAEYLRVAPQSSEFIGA
How it was run: as §1

EphA2(h) = EphA2(h) (Homo sapiens, UniProt P29317)
How it was run: as §1

Hck(h) activated = Hck(h) activated (Homo sapiens, UniProt P08631)
How it was run: as §1

IKKβ(h) = IKKβ(h) (Homo sapiens, UniProt O14920)
How it was run: as §1

Itk(h) = Itk(h) (Homo sapiens, UniProt Q08881)
How it was run: as §1

MAPK2(h) = MAPK2(h) (Homo sapiens, UniProt P28482)
How it was run: as §1

MELK(h) = MELK(h) (Homo sapiens, UniProt Q14680)
Chain of MELK(h) (Q14680 whole entry): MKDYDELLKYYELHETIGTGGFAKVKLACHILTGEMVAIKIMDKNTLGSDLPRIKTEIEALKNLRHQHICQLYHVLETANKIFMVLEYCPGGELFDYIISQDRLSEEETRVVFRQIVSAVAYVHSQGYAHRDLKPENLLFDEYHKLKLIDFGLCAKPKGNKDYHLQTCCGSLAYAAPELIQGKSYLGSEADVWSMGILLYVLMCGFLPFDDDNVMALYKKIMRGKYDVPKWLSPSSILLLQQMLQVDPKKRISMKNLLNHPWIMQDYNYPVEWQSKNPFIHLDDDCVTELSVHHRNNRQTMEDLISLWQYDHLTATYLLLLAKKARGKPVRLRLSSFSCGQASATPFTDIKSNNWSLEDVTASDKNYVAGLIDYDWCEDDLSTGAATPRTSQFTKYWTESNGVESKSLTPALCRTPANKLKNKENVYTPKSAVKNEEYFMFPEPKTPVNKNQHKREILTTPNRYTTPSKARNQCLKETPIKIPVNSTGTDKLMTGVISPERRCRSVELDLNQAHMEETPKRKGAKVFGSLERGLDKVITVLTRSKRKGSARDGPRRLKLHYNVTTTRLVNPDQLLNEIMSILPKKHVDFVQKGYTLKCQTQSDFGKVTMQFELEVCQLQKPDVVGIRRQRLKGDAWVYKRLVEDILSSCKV
How it was run: as §1

Met(h) = Met(h) (Homo sapiens, UniProt P08581)
How it was run: as §1

NEK7(h) = NEK7(h) (Homo sapiens, UniProt Q8TDX7)
How it was run: as §1

PDGFRα(D842V)(h) = PDGFRα(D842V)(h) (Homo sapiens, UniProt P16234, D842V)
Chain of PDGFRα(D842V)(h) (P16234 24-1089 D842V): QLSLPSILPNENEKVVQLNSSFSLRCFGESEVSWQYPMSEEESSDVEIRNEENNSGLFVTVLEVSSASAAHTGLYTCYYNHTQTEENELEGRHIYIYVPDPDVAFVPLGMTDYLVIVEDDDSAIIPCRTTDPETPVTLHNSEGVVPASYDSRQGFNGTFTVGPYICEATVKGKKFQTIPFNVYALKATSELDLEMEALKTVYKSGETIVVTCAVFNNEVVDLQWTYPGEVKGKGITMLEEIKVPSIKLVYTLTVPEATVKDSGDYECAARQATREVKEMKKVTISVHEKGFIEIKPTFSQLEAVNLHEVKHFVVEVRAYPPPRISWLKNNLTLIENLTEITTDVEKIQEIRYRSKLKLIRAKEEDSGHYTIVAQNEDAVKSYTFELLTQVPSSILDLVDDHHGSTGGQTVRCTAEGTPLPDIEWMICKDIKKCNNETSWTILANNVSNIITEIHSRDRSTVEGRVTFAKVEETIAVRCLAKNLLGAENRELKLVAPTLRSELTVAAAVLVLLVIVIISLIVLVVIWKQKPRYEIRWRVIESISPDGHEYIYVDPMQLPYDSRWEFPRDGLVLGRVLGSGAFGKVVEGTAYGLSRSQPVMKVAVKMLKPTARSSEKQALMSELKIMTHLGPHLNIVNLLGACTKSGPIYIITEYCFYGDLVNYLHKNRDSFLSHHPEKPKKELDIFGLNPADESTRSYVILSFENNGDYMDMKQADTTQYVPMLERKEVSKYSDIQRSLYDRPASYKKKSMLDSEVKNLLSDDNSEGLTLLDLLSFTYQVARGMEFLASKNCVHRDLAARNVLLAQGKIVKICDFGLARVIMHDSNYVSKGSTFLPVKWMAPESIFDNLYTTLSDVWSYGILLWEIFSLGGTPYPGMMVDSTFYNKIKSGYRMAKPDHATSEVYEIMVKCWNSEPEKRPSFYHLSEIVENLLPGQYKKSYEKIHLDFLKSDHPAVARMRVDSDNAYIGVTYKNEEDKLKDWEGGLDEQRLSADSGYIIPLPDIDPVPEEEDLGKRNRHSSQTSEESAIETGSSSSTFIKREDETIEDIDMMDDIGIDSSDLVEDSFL
How it was run: as §1

[1] = target: PI3 Kinase (p110α(E542K)/p85α)(m) (Mus musculus, UniProt P42337, E542K)
How it was run: as §1

PKCι(h) = PKCι(h) (Homo sapiens, UniProt P41743)
How it was run: as §1

PKD2(h) = PKD2(h) (Homo sapiens, UniProt Q9BZL6)
How it was run: as §1

Pim-3(h) = Pim-3(h) (Homo sapiens, UniProt Q86V86)
How it was run: as §1

SAPK2a(h) = SAPK2a(h) (Homo sapiens, UniProt Q16539)
How it was run: as §1

SAPK2b(h) = SAPK2b(h) (Homo sapiens, UniProt Q15759)
How it was run: as §1

SRPK2(h) = SRPK2(h) (Homo sapiens, UniProt P78362)
How it was run: as §1

Syk(h) = Syk(h) (Homo sapiens, UniProt P43405)
How it was run: as §1

TAO2(h) = TAO2(h) (Homo sapiens, UniProt Q9UL54)
How it was run: as §1

TGFBR1(h) = TGFBR1(h) (Homo sapiens, UniProt P36897)
How it was run: as §1

TSSK2(h) = TSSK2(h) (Homo sapiens, UniProt Q96PF2)
Chain of TSSK2(h) (Q96PF2 whole entry): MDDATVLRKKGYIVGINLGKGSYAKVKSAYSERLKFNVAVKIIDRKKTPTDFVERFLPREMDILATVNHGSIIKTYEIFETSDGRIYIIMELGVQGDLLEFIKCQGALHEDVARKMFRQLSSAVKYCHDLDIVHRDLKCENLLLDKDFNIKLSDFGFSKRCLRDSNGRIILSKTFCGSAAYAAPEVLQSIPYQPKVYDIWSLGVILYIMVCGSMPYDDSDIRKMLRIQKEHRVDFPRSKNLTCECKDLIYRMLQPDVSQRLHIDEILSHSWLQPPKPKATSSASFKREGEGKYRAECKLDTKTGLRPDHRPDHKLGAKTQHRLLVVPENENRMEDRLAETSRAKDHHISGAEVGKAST
How it was run: as §1

Tie2(R849W)(h) = Tie2(R849W)(h) (Homo sapiens, UniProt Q02763, R849W)
How it was run: as §1

ULK2(h) = ULK2(h) (Homo sapiens, UniProt Q8IYT8)
How it was run: as §1

cKit(D816V)(h) = cKit(D816V)(h) (Homo sapiens, UniProt P10721, D816V)
How it was run: as §1

Compound | inhibition at 0.1 µM (AMPKα1(h)) | inhibition at 0.1 µM (CDK1/cyclinB(h)) | inhibition at 0.1 µM (CK2(h)) | inhibition at 0.1 µM (CaMKIV(h)) | inhibition at 0.1 µM (DAPK1(h)) | inhibition at 0.1 µM (DAPK2(h)) | inhibition at 0.1 µM (DMPK(h)) | inhibition at 0.1 µM (EGFR(T790M)(h)) | inhibition at 0.1 µM (EphA2(h)) | inhibition at 0.1 µM (Hck(h) activated) | inhibition at 0.1 µM (IKKβ(h)) | inhibition at 0.1 µM (Itk(h)) | inhibition at 0.1 µM (MAPK2(h)) | inhibition at 0.1 µM (MELK(h)) | inhibition at 0.1 µM (Met(h)) | inhibition at 0.1 µM (NEK7(h)) | inhibition at 0.1 µM (PDGFRα(D842V)(h)) | inhibition at 0.1 µM [1] | inhibition at 0.1 µM (PKCι(h)) | inhibition at 0.1 µM (PKD2(h)) | also measured
Cc1cc2c(F)c(Oc3nc(Nc4cc(C5CC5)[nH]n4)cc(N4CCN(C)CC4)n3)ccc2[nH]1 [Compound 10] | 71% | 10% | 8% | -25% | 0% | -16% | -4% | 17% | 96% | 90% | 1% | 31% | -8% | 69% | 54% | 8% | 73% | 1% | 0% | -5% | inhibition at 0.1 µM (Pim-3(h)): -1%; inhibition at 0.1 µM (SAPK2a(h)): 10%; inhibition at 0.1 µM (SAPK2b(h)): -2%; inhibition at 0.1 µM (SRPK2(h)): 6%; inhibition at 0.1 µM (Syk(h)): 25%; inhibition at 0.1 µM (TAO2(h)): 18%; inhibition at 0.1 µM (TGFBR1(h)): 66%; inhibition at 0.1 µM (TSSK2(h)): 5%; inhibition at 0.1 µM (Tie2(R849W)(h)): 88%; inhibition at 0.1 µM (ULK2(h)): 37%; inhibition at 0.1 µM (cKit(D816V)(h)): 33%
Cc1cc2c(F)c(Oc3nc(Nc4cc(C5CC5)[nH]n4)cc(N4CCNCC4)n3)ccc2[nH]1 [Compound 11, N-(5-cyclopropyl-1H-pyrazol-3-yl)-2-((4-fluoro-2-methyl-1H-indol-5-yl)oxy)-6-(piperazin-1-yl)pyrimidin-4-amine] | 72% | -1% | 5% | -1% | 3% | -6% | -16% | 30% | 98% | 84% | 5% | 54% | -13% | 87% | 47% | -5% | 70% | 1% | -10% | -1% | inhibition at 0.1 µM (Pim-3(h)): -4%; inhibition at 0.1 µM (SAPK2a(h)): -7%; inhibition at 0.1 µM (SAPK2b(h)): -6%; inhibition at 0.1 µM (SRPK2(h)): 0%; inhibition at 0.1 µM (Syk(h)): 36%; inhibition at 0.1 µM (TAO2(h)): 16%; inhibition at 0.1 µM (TGFBR1(h)): 47%; inhibition at 0.1 µM (TSSK2(h)): 2%; inhibition at 0.1 µM (Tie2(R849W)(h)): 93%; inhibition at 0.1 µM (ULK2(h)): 30%; inhibition at 0.1 µM (cKit(D816V)(h)): 38%
